Measured values taken from ChEMBL document CHEMBL1140637, “QSAR modeling of matrix metalloproteinase inhibition by N-hydroxy-alpha-phenylsulfonylacetamide derivatives” (Bioorg Med Chem, 2007).

Assays:
[1] = molecular target: T1, Interstitial collagenase (Homo sapiens) (UniProt P03956); assay: Inhibition of MMP1
T1 sequence (whole entry): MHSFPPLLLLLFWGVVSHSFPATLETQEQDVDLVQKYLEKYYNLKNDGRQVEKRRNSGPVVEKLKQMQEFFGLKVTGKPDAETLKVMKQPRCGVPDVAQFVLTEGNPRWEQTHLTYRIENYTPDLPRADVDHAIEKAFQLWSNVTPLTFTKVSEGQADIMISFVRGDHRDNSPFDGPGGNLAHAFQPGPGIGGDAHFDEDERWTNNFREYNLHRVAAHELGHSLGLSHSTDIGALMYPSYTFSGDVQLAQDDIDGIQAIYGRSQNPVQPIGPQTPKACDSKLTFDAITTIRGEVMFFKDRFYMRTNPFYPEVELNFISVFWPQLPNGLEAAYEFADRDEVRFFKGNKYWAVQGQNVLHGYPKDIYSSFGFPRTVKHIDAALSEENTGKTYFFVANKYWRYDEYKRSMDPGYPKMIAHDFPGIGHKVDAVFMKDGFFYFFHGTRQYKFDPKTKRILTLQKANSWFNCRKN

[2] = molecular target: Matrix metalloproteinase-9 (Homo sapiens) (UniProt P14780); assay: Inhibition of MMP9
Chain of Matrix metalloproteinase-9 (Homo sapiens) (P14780 whole entry): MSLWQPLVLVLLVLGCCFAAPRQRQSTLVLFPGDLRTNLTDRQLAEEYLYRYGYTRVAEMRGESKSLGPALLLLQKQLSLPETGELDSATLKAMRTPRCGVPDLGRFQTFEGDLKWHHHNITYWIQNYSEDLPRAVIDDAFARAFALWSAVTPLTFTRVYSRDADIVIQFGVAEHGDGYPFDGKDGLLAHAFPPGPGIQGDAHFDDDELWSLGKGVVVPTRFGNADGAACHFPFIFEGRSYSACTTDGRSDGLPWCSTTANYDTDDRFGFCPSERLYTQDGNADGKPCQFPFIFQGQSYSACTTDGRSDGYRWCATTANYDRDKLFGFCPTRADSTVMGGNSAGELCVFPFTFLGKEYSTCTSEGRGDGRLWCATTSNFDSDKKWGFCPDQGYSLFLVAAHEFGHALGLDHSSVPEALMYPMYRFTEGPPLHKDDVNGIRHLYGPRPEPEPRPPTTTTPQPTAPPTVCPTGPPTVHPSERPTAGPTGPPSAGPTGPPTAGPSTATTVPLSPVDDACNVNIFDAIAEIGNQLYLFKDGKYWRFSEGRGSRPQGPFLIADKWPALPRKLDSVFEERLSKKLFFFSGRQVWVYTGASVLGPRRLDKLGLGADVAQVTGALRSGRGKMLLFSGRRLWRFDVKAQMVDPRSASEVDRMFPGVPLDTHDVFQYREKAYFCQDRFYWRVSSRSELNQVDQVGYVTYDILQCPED

[3] = molecular target: Collagenase 3 (Homo sapiens) (UniProt P45452)

SMILES | log(10^6/IC50) [1] | log(10^6/IC50) [2] | log(10^6/IC50) [3]
COc1ccc(S(=O)(=O)[C@](C)(Cc2ccc(OCCN3CCCCC3)cc2)C(=O)NO)cc1 | 3.62 | 5.05 | –
CCCCOc1ccc(S(=O)(=O)C2(C(=O)NO)CCN(Cc3ccc(OCCN4CCCCC4)cc3)CC2)cc1 | 2.71 | 5.7 | –
COc1ccc(S(=O)(=O)C2(C(=O)NO)CCN(CCCOc3ccccc3)CC2)cc1 | 2.92 | 4.36 | 5.4
COc1ccc(S(=O)(=O)[C@](C)(Cc2ccc(OCCCN3CCN(c4cccc(Cl)c4)CC3)cc2)C(=O)NO)cc1 | 3.23 | 5.15 | 5.4
COc1ccc(S(=O)(=O)[C@](CCC(C)C)(Cc2cccnc2)C(=O)NO)cc1 | 3.24 | – | 4.05
O=C(NO)C1(S(=O)(=O)c2ccc(Oc3ccc(Cl)cc3)cc2)CCN(Cc2ccccc2)CC1 | 3.1 | 6 | 6
O=C(NO)C1(S(=O)(=O)c2ccc(-c3ccco3)cc2)CCN(Cc2ccccc2)CC1 | 4.4 | 5.52 | –
COc1ccc(S(=O)(=O)C2(C(=O)NO)CCN(Cc3ccc(-c4ccccc4)cc3)CC2)cc1 | 2.88 | 4.89 | 5.52
CCCCOc1ccc(S(=O)(=O)C2(C(=O)NO)CCN(Cc3ccc(Cl)c(Cl)c3)CC2)cc1 | 2.44 | 4.7 | 5.3
COc1ccc(CN2CCC(C(=O)NO)(S(=O)(=O)c3ccc(Oc4ccc(Cl)cc4)cc3)CC2)cc1 | 3.31 | 6 | –
COc1ccc(S(=O)(=O)C2(C(=O)NO)CCN(C(C)(C)C)CC2)cc1 | – | 3.19 | 3.83
COc1ccc(S(=O)(=O)C2(C(=O)NO)CCN(Cc3ccc(-c4cccs4)cc3)CC2)cc1 | 3.27 | 4.96 | 5.52
CCCCOc1ccc(S(=O)(=O)C2(C(=O)NO)CCN(CCCOc3ccccc3)CC2)cc1 | 2.42 | 5.3 | –
CCCCOc1ccc(S(=O)(=O)C2(C(=O)NO)CCN(CCCC)CC2)cc1 | – | 4.55 | 5.7
C#CC[C@](Cc1cccnc1)(C(=O)NO)S(=O)(=O)c1ccc(OC)cc1 | 3.17 | 4.08 | 4.49
O=C(NO)C1(S(=O)(=O)c2ccc(OCc3ccccc3)cc2)CCN(Cc2ccccc2)CC1 | – | 5.52 | –
COc1ccc(S(=O)(=O)C2(C(=O)NO)CCN(Cc3ccc(Cl)c(Cl)c3)CC2)cc1 | 3.35 | 5.22 | 5.7
C=C(C)[C@@](C)(C(=O)NO)S(=O)(=O)c1ccc(OC)cc1 | 3.62 | 4.96 | 4.85
CCCCOc1ccc(S(=O)(=O)C2(C(=O)NO)CCN(CC)CC2)cc1 | 2.15 | 4.37 | 5.7
COc1ccc(S(=O)(=O)[C@@](C)(CC2CCCCC2)C(=O)NO)cc1 | 3.49 | 5.05 | 4.62
CCN(CC)CCOc1ccc(CC(C)(C(=O)NO)S(=O)(=O)c2ccc(OC)cc2)cc1 (single isomer, unassigned) | 3.5 | 4.89 | 4.82

SMILES | log(10^6/IC50) [1] | log(10^6/IC50) [2] | log(10^6/IC50) [3]
COc1ccc(S(=O)(=O)C2(C(=O)NO)CCN(Cc3ccc(C)cc3)CC2)cc1 | 3.31 | 4.77 | 5.7
COc1ccc(S(=O)(=O)C2(C(=O)NO)CCN(Cc3ccccc3)CC2)cc1 | 3.31 | 5 | 5.7
COc1ccc(S(=O)(=O)C2(C(=O)NO)CCN(CCOc3ccccc3)CC2)cc1 | 3.2 | 4.59 | 5.52
CCC(CC)COc1ccc(S(=O)(=O)C2(C(=O)NO)CCN(Cc3ccccc3)CC2)cc1 | 2.5 | 4.85 | 5.3
COc1ccc(S(=O)(=O)C2(C(=O)NO)CCN(Cc3ccc4ccccc4c3)CC2)cc1 | 3.43 | 5.3 | –
CCCCOc1ccc(S(=O)(=O)C2(C(=O)NO)CCN(C)CC2)cc1 | 2.47 | 5 | 5.7
CCN1CCC(C(=O)NO)(S(=O)(=O)c2ccc(Oc3ccc(Cl)cc3)cc2)CC1 | 2.76 | 6 | 6
COc1ccc(S(=O)(=O)C(C)(C/C=C/c2ccccc2)C(=O)NO)cc1 (stereo unspecified) | 3.52 | 4.8 | 4.92
COc1ccc(S(=O)(=O)C2(C(=O)NO)CCN(Cc3ccc(OCCN4CCCCC4)cc3)CC2)cc1 | 3.41 | 5.52 | 5.52
CCCCOc1ccc(S(=O)(=O)C2(C(=O)NO)CCN(CCOc3ccccc3)CC2)cc1 | 2.54 | 5.3 | –
COc1ccc(S(=O)(=O)C2(C(=O)NO)CCN(Cc3ccc(-c4ccccn4)cc3)CC2)cc1 | 3.37 | 5.22 | –
COc1ccc(S(=O)(=O)C2(C(=O)NO)CCN(C(C)C)CC2)cc1 | 2.35 | 3.43 | 4.47
COc1ccc(S(=O)(=O)C2(C(=O)NO)CCN(Cc3cccc(OC)c3)CC2)cc1 | 3.28 | 5.05 | 5.7
CCCCOc1ccc(S(=O)(=O)C2(C(=O)NO)CCN(Cc3cccc(OC)c3)CC2)cc1 | 2.82 | 5.52 | –
O=C(NO)C1(S(=O)(=O)c2ccc(Oc3ccc(Cl)cc3)cc2)CCNCC1 | 2.9 | 5.7 | 5.7
COc1ccc(CCN2CCC(C(=O)NO)(S(=O)(=O)c3ccc(OC)cc3)CC2)cc1 | 3.18 | 4.47 | 5.7
CCCCN1CCC(C(=O)NO)(S(=O)(=O)c2ccc(Oc3ccc(Cl)cc3)cc2)CC1 | 2.97 | 6 | 6
COc1ccc(S(=O)(=O)C(C)(Cc2ccc(-c3ccccc3)cc2)C(=O)NO)cc1 (stereo unspecified) | 3.8 | 4.64 | –
CCN(CC)CCOc1ccc(C[C@](C)(C(=O)NO)S(=O)(=O)c2ccc(-c3ccco3)cc2)cc1 | 4.85 | 5.4 | 5.7
C=C(C)N1CCC(C(=O)NO)(S(=O)(=O)c2ccc(OC)cc2)CC1 | 2.86 | 4.41 | 5.15
COc1ccc(S(=O)(=O)C2(C(=O)NO)CCN(Cc3ccc(F)cc3)CC2)cc1 | 3.18 | 4.8 | 5.7
